Among the test systems are 786-0 renal; EKVX NSCLC; HOP-62 NSCLC; IGROV1 ovarian; M19-MEL melanoma; MALME-3M melanoma; OVCAR-5 ovarian; SK-MEL-28 melanoma; SNB-19 CNS; SNB-78 CNS.
What all share (test): growth of human tumour cells (NCI), 48 h

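Values below derive from 48-hour exposures of cells grown in 96-well plates, with endpoints linearly interpolated between the two concentrations bracketing the appropriate inhibition level. Definition used: TGI = concentration required for complete inhibition of growth.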 A value given as a limit tells only on which side of the number the result lay.

For `S=C=NCCc1ccccc1`, the TGI in the test with 786-0 renal was found to be 1.05 µM; in the test with EKVX NSCLC, 30.4 µM; in the test with HOP-62 NSCLC it was 1.35 µM; with IGROV1 ovarian it was 1.37 µM; with M19-MEL melanoma, 2.95 µM; in the test with MALME-3M melanoma, 2.51 µM. Also, the TGI in the test on OVCAR-5 ovarian is 2.96 µM; in the test on SK-MEL-28 melanoma, 2.27 µM; in the test with SNB-19 CNS, 7.85 µM; in the test with SNB-78 CNS, 5.78 µM.
Turning to `O=C(C/C(CCC(=O)N(Cc1ccccc1)Cc1ccccc1)=N/Nc1ccc([N+](=O)[O-])cc1[N+](=O)[O-])c1ccccc1`, the TGI in the test on 786-0 renal, in the test with EKVX NSCLC, with HOP-62 NSCLC, in the test on IGROV1 ovarian, in the test with M19-MEL melanoma and in the test on MALME-3M melanoma was greater than 100 µM each time. Besides, the TGI in the test with OVCAR-5 ovarian, with SK-MEL-28 melanoma, in the test on SNB-19 CNS and in the test on SNB-78 CNS was greater than 100 µM in each case.
As for `CC[N+](C)(CC)CC(C)(C)C(=O)/C=C/c1ccc(/C=C/C(=O)C(C)(C)C[N+](C)(CC)CC)cc1`, the TGI in the test on 786-0 renal, with EKVX NSCLC, with HOP-62 NSCLC, with IGROV1 ovarian, with M19-MEL melanoma and with MALME-3M melanoma was greater than 100 µM in each case. Moreover, the TGI in the test on OVCAR-5 ovarian, in the test with SK-MEL-28 melanoma, with SNB-19 CNS and with SNB-78 CNS was greater than 100 µM in each case.
For the molecule `C#CCN(C(=O)C(F)(F)F)c1ccc(C(=O)c2ccc(N(CC#C)C(=O)C(F)(F)F)cc2)cc1`, the TGI in the test with 786-0 renal, with EKVX NSCLC, in the test on HOP-62 NSCLC, in the test with IGROV1 ovarian, with M19-MEL melanoma and with MALME-3M melanoma was greater than 100 µM in each case. Moreover, the TGI in the test with OVCAR-5 ovarian, with SK-MEL-28 melanoma, in the test on SNB-19 CNS and in the test on SNB-78 CNS was greater than 100 µM each time.
For `Cc1nc2sccn2c1C(=O)NC(=O)Nc1ccc(Cl)cc1`, the TGI with 786-0 renal, in the test on EKVX NSCLC, in the test with HOP-62 NSCLC, with IGROV1 ovarian, in the test on M19-MEL melanoma and in the test on MALME-3M melanoma was greater than 100 µM each time. Further, the TGI in the test on OVCAR-5 ovarian, in the test with SK-MEL-28 melanoma, with SNB-19 CNS and with SNB-78 CNS was greater than 100 µM in each case.
Regarding `Cc1cc(=O)[nH]c(CNC(=O)c2cccc(C(=O)NCc3cc(=O)[nH]c(C)n3)c2)n1`, the TGI with 786-0 renal, in the test with EKVX NSCLC, with HOP-62 NSCLC, with IGROV1 ovarian, in the test with M19-MEL melanoma and with MALME-3M melanoma was greater than 100 µM in each case. The TGI in the test with OVCAR-5 ovarian, with SK-MEL-28 melanoma, in the test on SNB-19 CNS and in the test with SNB-78 CNS was greater than 100 µM throughout.
For the molecule `COc1cccc2c1C(=O)OC2c1cccc2ccccc12` (stereo not given), the TGI was greater than 100 µM in the test with 786-0 renal; greater than 100 µM in the test with EKVX NSCLC; 62.4 µM in the test on HOP-62 NSCLC; greater than 100 µM in the test with IGROV1 ovarian; greater than 100 µM in the test with M19-MEL melanoma; greater than 100 µM in the test with MALME-3M melanoma. The TGI in the test on OVCAR-5 ovarian, with SK-MEL-28 melanoma, in the test with SNB-19 CNS and in the test on SNB-78 CNS was greater than 100 µM in each case.
On to `O=C(CCc1nnc2s/c(=C\c3ccccc3Cl)c(=O)n12)Nc1cc(Cl)ccc1Cl`, for which the TGI with 786-0 renal, with EKVX NSCLC, with HOP-62 NSCLC, in the test with IGROV1 ovarian, in the test on M19-MEL melanoma and in the test on MALME-3M melanoma was greater than 100 µM each time. For the same molecule, the TGI in the test on OVCAR-5 ovarian, in the test on SK-MEL-28 melanoma, in the test with SNB-19 CNS and in the test on SNB-78 CNS was greater than 100 µM each time.

The values above are taken from PubChem BioAssay (NCI).
